{"source": "patent US6787545B1", "about": "“Pyrrolotriazine derivatives having spla2-inhibitory activities” (Shiongi & Co., Ltd., priority 1999, dated 2004)", "key": {"[1]": {"target": "T1, recombinant human secretory phospholipase A2 (Homo sapiens, UniProt P14555)", "T1 sequence (P14555 21-144)": "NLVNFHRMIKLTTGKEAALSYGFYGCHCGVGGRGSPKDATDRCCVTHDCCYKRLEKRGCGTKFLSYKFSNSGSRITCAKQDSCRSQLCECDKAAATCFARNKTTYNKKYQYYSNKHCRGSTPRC", "test": "Inhibition test of human secretory phospholipase A2 (chromogenic assay, 96 well microtiterplate)", "format": "biochemical", "conditions": "sPLA2 50 ng/well, 40° C., 30 minutes, OD 405 nm, substrate 1,2-bis(heptanoylthio)-1,2-dideoxy-sn-glycero-3-phospholylcholine", "from_the_text": "Inhibition Test of Human Secretory Phospholipase A2 Analytical Experiment\nIn order to identify and evaluate an inhibitor of recombinant human secretory phospholipase A2, the following chromogenic assay is utilized. The assay herein has been applied for high volume screening wherein 96 well microtiterplate is used. A general explanation for such assay is described in “Analysis of Human Synovial Fluid Phospholipase A2 on Short Chain Phosphatidylcholine-Mixed Micelles: Development of a Spectrophotometric Assay Suitable for a Micortiterplate Reader” (Analytical Biochemistry, 204, pp 190-197, 1992 by Laure. J. Reynolds. Lori L. Hughes and Edward A. Dennis: the disclosure of which is incorporated herein for reference.\n1 mg of sPLA2 is dissolved in 1 ml of an enzyme buffer. Thereafter, the solution is maintained at 4° C.\nIn the assay, 5 μl of the solution is diluted with 1995 μl of the reaction buffer to be used.\n198 mg of 5,5′-dithiobis-2-[…] (manufactured by Wako Pure Chemicals) is dissolved in 100 ml of H2O\npH 7.5 (adjusted with NaOH)\n100 mg of racemic 1,2-bis(heptanoylthio)-1,2-dideoxy-sn-glycero-3-phospholylcholine is dissolved in 1 ml of chloroform.\n624.9 mg of Triton-X 100 is dissolved in the reaction buffer.\nEnzyme Reaction: for 1 Plate of Microtiterplate\n1) 0.106 ml of the substrate solution is put in a centrifugal tube, and nitrogen gas is jetted to remove the solvent. 0.54 ml of Triton-X 100 is added thereto, the mixture is stirred, thereafter it is sonified in a bath type sonification to dissolve. To the resulting product are added 17.8 ml of the reaction buffer and 0.46 ml of DTNB, and 0.18 ml each of the admixture is poured to wells of the 96 well microtiterplate.\n2) 10 μl of a test compound (or solvent blank) are added in accordance with alignment of plates which has been previously set.\n3) Incubation is effected at 40° C. for 15 minutes.\n4) 20 μl of an enzyme solution (sPLA2) which has been previously diluted (50 ng/well) are added to start reaction (40° C., 30 minutes).\n5) Changes in absorbancy for 30 minutes are measured by a plate reader, and inhibition activity was calculated (OD: 405 nm).\n6) IC50 was determined by plotting log concentration with respect to inhibition values within 10% to 90% inhibiting range."}}}
{"smiles": "CCc1c(C(=O)C(N)=O)c2c(OCC(=O)OC)nc(C)nn2c1Cc1ccccc1-c1ccccc1", "note": "[Compound I-7]", "values": [{"measurement": "IC50", "setting": "[1]", "value": 607, "unit": "nM"}]}
{"smiles": "CCc1c(C(=O)C(N)=O)c2c(OCC(=O)O)nc(C)nn2c1Cc1ccccc1", "note": "[Compound I-4]", "values": [{"measurement": "IC50", "setting": "[1]", "value": 11, "unit": "nM"}, {"measurement": "melting point", "value": "207 to 209", "unit": "°C"}]}
{"smiles": "Cc1nc(OCC(=O)O)c2c(C(=O)C(N)=O)c(C)c(Cc3ccccc3)n2n1", "note": "[Compound I-2]", "values": [{"measurement": "IC50", "setting": "[1]", "value": 13, "unit": "nM"}, {"measurement": "melting point", "value": "195 to 197", "unit": "°C"}]}
{"smiles": "CCc1c(C(=O)C(N)=O)c2c(OCC(=O)OC)nc(C)nn2c1Cc1ccccc1", "note": "[Compound I-3]", "values": [{"measurement": "IC50", "setting": "[1]", "value": 317, "unit": "nM"}, {"measurement": "melting point", "value": "170 to 171", "unit": "°C"}]}
{"smiles": "CCc1c(C(=O)C(N)=O)c2c(OCC(=O)O)nc(C)nn2c1Cc1ccccc1-c1ccccc1", "note": "[Compound I-8]", "values": [{"measurement": "IC50", "setting": "[1]", "value": 8, "unit": "nM"}, {"measurement": "melting point", "value": "174 to 176", "unit": "°C"}]}
{"smiles": "CCc1c(C(=O)C(N)=O)c2c(OCC(=O)O)nc(C)nn2c1Cc1ccccc1-c1cccs1", "note": "[Compound I-6]", "values": [{"measurement": "IC50", "setting": "[1]", "value": 11, "unit": "nM"}, {"measurement": "melting point", "value": "184 to 186", "unit": "°C"}]}
{"smiles": "COC(=O)COc1nc(C)nn2c(Cc3ccccc3)c(C)c(C(=O)C(N)=O)c12", "note": "[Compound I-1]", "values": [{"measurement": "IC50", "setting": "[1]", "value": 203, "unit": "nM"}]}
